From patent US10300071B2, “Compositions and methods for inhibition of mycobacteria” (priority 2014, dated 2019)
Values after ≈ are worked out from the molar mass of the structure shown. Where two headings read alike, the source gives them in different places.

Tests used:
Mtb AccD6 = Mtb AccD6 (Mycobacterium tuberculosis, UniProt P9WQH5); experiment: biochemical; type: biochemical
Mtb strain mc^2-7000 = experiment: microbe, parasite or virus in culture; type: cell-based, Mycobacterium tuberculosis; conditions: Mycobacterium tuberculosis, 144 h
[1] = Pharmacokinetic studies in mice, plasma concentration after gavage (LC/MS); conditions: for peak plasma concentration, 30 minutes after gavage / peak plasma concentration, 90 minutes after gavage: 100 mg/kg gavage, PEG or canola oil; for Plasma conc. 24 Hrs. after 1st dose / Plasma conc. 24 Hrs. after last dose: oral, 1 dose/day x 4 days, NZ-331 200 mg/kg, NZ-332 and NZ-369 100 mg/kg; for peak plasma concentration (FIG. 6A): two doses 200 mg/kg 8 h apart, approx. 12 hours after first dose, 4 hours after second
plasma protein = experiment: Plasma protein binding assay
Description: Protein plasma binding assays were conducted in female mice for each of the arylphenoxypropionate derivatives quizalofop-p, quizalofop-p-ethyl, fenoxaprop-p, and fenoxaprop-p-ethyl.

[2] = rat, in vivo
in vivo = conditions: rat
[3] = cited from earlier work
[4] = 1-year feeding study, dogs; cited from earlier work
[5] = mammals, within three days; cited from earlier work
[6] = CPRC; cited from earlier work
[7] = Additional pharmacokinetic studies in rats
[8] = 300 μM malonyl-CoA, inhibitor 10 μM to 2000 μM, read-out: IC50
[9] = 6 days incubation at 37° C., resazurin, read on the 7th day, read-out: MIC

Sequence of Mtb AccD6 (P9WQH5 whole entry, looked up): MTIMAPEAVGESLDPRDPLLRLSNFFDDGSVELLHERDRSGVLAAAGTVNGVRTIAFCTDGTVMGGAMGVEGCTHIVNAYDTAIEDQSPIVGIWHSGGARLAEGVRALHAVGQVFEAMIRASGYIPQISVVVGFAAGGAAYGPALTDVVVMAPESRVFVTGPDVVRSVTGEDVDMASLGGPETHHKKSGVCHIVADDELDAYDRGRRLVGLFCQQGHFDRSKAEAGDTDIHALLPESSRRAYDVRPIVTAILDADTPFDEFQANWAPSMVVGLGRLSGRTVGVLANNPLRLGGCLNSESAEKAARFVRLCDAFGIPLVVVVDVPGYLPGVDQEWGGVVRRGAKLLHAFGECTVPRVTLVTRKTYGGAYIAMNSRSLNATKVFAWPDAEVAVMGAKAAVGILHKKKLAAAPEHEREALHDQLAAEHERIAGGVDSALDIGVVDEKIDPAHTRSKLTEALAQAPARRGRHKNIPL

Compound: CC(C)NC(=O)Nc1ccc(Oc2nc3ccc(F)cc3s2)cc1 [NZ-332, 1-{4-[(6-fluoro-1,3-benzothiazol-2-yl)oxy]phenyl}-3-(propan-2-yl)urea]
- IC50 (Mtb AccD6; [8]): 650 nM
- MIC (Mtb strain mc^2-7000; [9]): 0.8 µM (≈ 0.276 µg/mL)
- concentrations at which not toxic, s. cerevisiae cytotoxicity (S. cerevisiae): ≥ 100 µM
- concentrations at which not toxic, human fibroblast cytotoxicity (human fibroblast): ≥ 100 µM
- peak plasma concentration, 30 minutes after gavage [1]: approximately 9 μL/mg
- peak plasma concentration, 90 minutes after gavage [1]: 13
- Plasma conc. 24 Hrs. after 1st dose ([1]; canola oil): 2.2 (±0.6) μg/ml
- Plasma conc. 24 Hrs. after last dose ([1]; canola oil): 1.8 (±0.2) μg/ml
- peak plasma concentration (FIG. 6A) ([1]; canola oil, gavage): approximately 34 μL/mg

Compound: CCOC(=O)[C@@H](C)Oc1ccc(Oc2nc3ccc(Cl)cc3o2)cc1 [fenoxaprop-p-ethyl, ethyl (2R)-2-{4-[(6-chloro-1,3-benzoxazol-2-yl)oxy]phenoxy}propanoate]
- MIC (Mtb strain mc^2-7000): 1.56 µM (≈ 0.564 µg/mL)
- stability under assay conditions (plasma esterase activity) (plasma protein): not stable under assay conditions
- oral absorption [2]: absorbed rapidly
- minimum rate of absorption (urinary excretion including cage washes and residues in tissues/organs) ([2]; po): at least 40 % of the administered dose
- time at which test substance was already found in the blood ([2]; po): 15 min
- time of peak (maximum) blood concentration ([2]; po): 6 to 8 h
- concentrations at which not toxic, human fibroblast cytotoxicity (human fibroblast): ≥ 100 µM
- half-life (in vivo; initial phase): 9 to 11 h
- half-life (in vivo; terminal phase): 68 to 75 h

Compound: CC(C)NC(=O)Nc1ccc(Oc2nc3ccc(Cl)cc3s2)cc1 [NZ-331, 1-{4-[(6-chloro-1,3-benzothiazol-2-yl)oxy]phenyl}-3-(propan-2-yl)urea]
- IC50 (Mtb AccD6; [8]): 800 nM
- MIC (Mtb strain mc^2-7000; [9]): 0.8 µM (≈ 0.289 µg/mL)
- concentrations at which not toxic, s. cerevisiae cytotoxicity (S. cerevisiae): ≥ 100 µM
- concentrations at which not toxic, human fibroblast cytotoxicity (human fibroblast): ≥ 100 µM
- peak plasma concentration, 30 minutes after gavage [1]: approximately 6 μL/mg
- peak plasma concentration, 90 minutes after gavage [1]: 9
- Plasma conc. 24 Hrs. after 1st dose ([1]; canola oil): 17.7 (±2.7) μg/ml
- Plasma conc. 24 Hrs. after last dose ([1]; canola oil): 27.1 (±13.7) μg/ml
- peak plasma concentration (FIG. 6A) ([1]; canola oil, gavage): approximately 23 μL/mg
- peak plasma concentration (FIG. 11), 24 hours ([1]; two doses 200 mg/kg 8 hours apart, canola oil, 24 hours after gavage): 34.5
- corrected peak plasma concentration (FIG. 6B) ([1]; two doses 200 mg/kg, canola oil, gavage, approx. 24 hours after first dose, 16 hours after second): approximately 138 μL/mg

Compound: CNC(=O)C(C)c1ccc(Oc2nc3ccc(Cl)cc3s2)cc1 (stereo not drawn) [NZ-369, 2-{4-[(6-chloro-1,3-benzothiazol-2-yl)oxy]phenyl}-N-methylpropanamide]
- IC50 (Mtb AccD6; [8]): 870 nM
- MIC (Mtb strain mc^2-7000; [9]): 0.73 to 0.98 µM (≈ 0.253 to 0.34 µg/mL)
- concentrations at which not toxic, s. cerevisiae cytotoxicity (S. cerevisiae): ≥ 100 µM
- concentrations at which not toxic, human fibroblast cytotoxicity (human fibroblast): ≥ 100 µM
- Plasma conc. 24 Hrs. after 1st dose ([1]; canola oil): 0.74 (±0.09) μg/ml
- Plasma conc. 24 Hrs. after last dose ([1]; canola oil): 0.57 (±0.07) μg/ml
- peak plasma concentration (FIG. 10) ([1]; single dose 200 mg/kg, canola oil, gavage, 2 hours after gavage): 27.4
- peak plasma concentration (FIG. 11), 2 hours ([1]; two doses 200 mg/kg 8 hours apart, canola oil, 2 hours after gavage): 27.4

Compound: CC(Oc1ccc(Oc2nc3ccc(Cl)cc3o2)cc1)C(=O)O (stereo not drawn) [fenoxaprop-p, 2-{4-[(6-chloro-1,3-benzoxazol-2-yl)oxy]phenoxy}propanoic acid, reference compound]
- IC50 (Mtb AccD6; [8]): 1500 nM
- MIC (Mtb strain mc^2-7000; [9]): 25 µM (≈ 8.34 µg/mL)
- Percentage of Compound Bound (plasma protein; female, mouse): 98.58%
- Percentage of Compound Recovered (plasma protein; female, mouse): 76%
- concentrations at which not toxic, human fibroblast cytotoxicity (human fibroblast): ≥ 100 µM

Compound: CONC(=O)C(C)c1ccc(Oc2nc3ccc(Cl)cc3s2)cc1 (racemic) [NZ-313, 2-{4-[(6-chloro-1,3-benzothiazol-2-yl)oxy]phenyl}-N-methoxypropanamide]
- IC50 (Mtb AccD6; [8]): 320 nM
- MIC (Mtb strain mc^2-7000; [9]): 0.38 µM (≈ 0.138 µg/mL)
- concentrations at which not toxic, s. cerevisiae cytotoxicity (S. cerevisiae): ≥ 100 µM
- concentrations at which not toxic, human fibroblast cytotoxicity (human fibroblast): ≥ 100 µM
- peak plasma concentration (FIG. 8) ([1]; single dose 200 mg/kg, PEG, gavage, 90 minutes after gavage): 1
- peak plasma concentration (FIG. 7) ([1]; two doses 100 mg/kg 4 hours apart, canola oil, gavage, 30 minutes after gavage): approximately 0.69 μL/mg

Compound: CCOC(=O)[C@@H](C)Oc1ccc(Oc2cnc3cc(Cl)ccc3n2)cc1 [quizalofop-p-ethyl, ethyl (2R)-2-{4-[(6-chloroquinoxalin-2-yl)oxy]phenoxy}propanoate]
- IC50 (Mtb AccD6; [8]): 2300 nM
- MIC (Mtb strain mc^2-7000; [9]): 0.68 to 1.56 µM (≈ 0.254 to 0.582 µg/mL)
- stability under assay conditions (plasma esterase activity) (plasma protein; plasma): not stable under assay conditions
- LD50, rabbits [3]: greater than 2,000 mg/kg
- doses causing zero observed effects [4]: up to 10 mg/kg/day
- share of a single oral dose eliminated in urine [5]: more than 90%
- carcinogen classification [6]: Group D carcinogen
- time to convert from ester to acid [7]: ~3 h
- time of peak (maximum) blood concentration ([7]; oral): six to nine
- oral absorption ([7]; oral route): absorbed to a considerable extent by the oral route
- concentration of quizalofop-p-ethyl detected at all collection timepoints ([1]; gavage 50 mg/kg): much lower than the concentration of quizalofop-p detected

Compound: C[C@@H](Oc1ccc(Oc2cnc3cc(Cl)ccc3n2)cc1)C(=O)O [quizalofop-p, (2R)-2-{4-[(6-chloroquinoxalin-2-yl)oxy]phenoxy}propanoic acid, reference compound]
- IC50 (Mtb AccD6): 800 nM
- Percentage of Compound Bound (plasma protein; mouse plasma): 96.8%
- Percentage of Compound Recovered (plasma protein; mouse plasma): 90%
- peak plasma concentration of quizalofop-p ([1]; quizalofop-p-ethyl or quizalofop-p in carboxymethylcellulose or canola oil, gavage 50 mg/kg, 8 hours after gavage): 35
